Experimental findings from paper PMC11312998, “Molecular Pro-Apoptotic Activities of Flavanone Derivatives in Cyclodextrin Complexes: New Implications for Anticancer Therapy” (International Journal of Molecular Sciences, 2024) are described below.

The subject of one assay is HCC38. The experiment in a line: MTT cytotoxicity assay. In kind it is cell-based. The note with it: Homo sapiens, 24 h incubation, mean ± SEM, read-out: Cytotoxic effect, IC50. As for the experimental part: (§1) Cell viability was determined using the metabolic microplate spectrophotometric assay with Methylthiazolyl diphenyltetrazolium bromide (MTT), i.e., 3-(4,5-Dimethyl-2-thiazolyl)-2,5-diphenyl-2H-tetrazolium bromide (Sigma-Aldrich; St. Louis, MO, USA). The anticancer activity of the investigated compounds was evaluated in vitro on the basis of their ability to inhibit the proliferation of various cancer cells. The appropriate number of cells for a given cell line (6–8 × 10^3 cells/mL) were seeded into sterile, colorless 96-well microplates. After 24 h of culture, specific wells of the microplate were treated with test compounds (10–200 µmol/L concentration) and incubated in a CO2 incubator for 24 h. The medium was then removed, the cell monolayer was washed twice with sterile PBS solution and fresh culture medium was added to the wells of the microplate.
(§2) After 48 h of cell culture, the MTT test was conducted. In each well of the microplate, 50 µL of tetrazolium salt solution (final concentration 0.05 mg/mL) was added. The microplate was then placed in a CO2 incubator for 3–4 h (depending on the cell line). Following incubation, 100 µL of DMSO (dimethyl sulfoxide, Sigma-Aldrich, St. Louis, MO, USA) was added to the microplate wells to dissolve the purple formazan crystals formed in the environment of living cells. The absorbance of the formazan solution was read at a wavelength of λ = 580 nm and a reference wavelength of λ = 720 nm after gentle mixing (Biotek Power Wave HT, Biotek Instruments, Winooski, VT, USA).
(§3) The percentage of live cells was calculated by comparing the absorbance value of the tested samples with that of the control (cells not treated with compounds). Control absorbance was arbitrarily considered to be 100%.
(§4) In order to determine the contribution of ROS to the cytotoxicity of the tested compounds, the cells were pre-incubated for 1 h with the antioxidant vitamin E (Trolox, Sigma-Aldrich; St. Louis, MO, USA). Cells were seeded into sterile, colorless 96-well microplates at a concentration of 6–8 × 10^3 cells/mL, depending on the cell line. After 24 h of culture, Trolox was added at a final concentration of 50 μM/well. After 1 h of incubation, the antioxidant was washed off, then appropriate concentrations of test compounds (10–200 µmol/L concentration) were added to fresh cell culture medium and incubated for 24 h. The MTT test was then performed under identical experimental conditions, as described in Section 3.1.2.

Assay [1] has as its system Hec-1-A. The assay can be described thus: MTT cytotoxicity assay. The settings on record: Homo sapiens, 24 h incubation, mean ± SEM, read-out: Cytotoxic effect, IC50. In kind it is cell-based. As to the method:
as §1, §2, §3, §4

Assay [2] concerns MCF-7. The experiment in a line: MTT cytotoxicity assay. The settings on record: Homo sapiens, MCF7, 24 h incubation, mean ± SEM, read-out: Cytotoxic effect, IC50. In kind it is cell-based. As to the method: as §1, §2, §3, §4
For assay [3], the system named is MDA-MB-231. The assay can be described thus: MTT cytotoxicity assay. It is filed as cell-based. The note with it: Homo sapiens, 24 h incubation, mean ± SEM, read-out: Cytotoxic effect, IC50. As for the experimental part: as §1, §2, §3, §4
In assay [4] the test system is Hec-1-A. The experiment in a line: Mitochondrial potential (ΔΨm), JC-1 method. In kind it is cell-based, human. The note with it: IC50 concentration, 24 h. From the text: (§5) 5,5,6,6-Tetrachloro-1,1,3,3-tetraethylbenzimidazolylcarbocyanine iodide (JC-1) is a cationic carbocyanine dye commonly used as a fluorescent probe to detect mitochondrial membrane depolarization. In living cells with an intact mitochondrial membrane, the lipophilic JC-1 penetrates the negatively charged mitochondrial matrix as a monomer. It then forms fluorescent aggregates with red-orange fluorescence (λex = 514 nm, λem = 590 nm). During depolarization of the mitochondrial membrane or in apoptotic cells, the concentration of JC-1 decreases, and the aggregates disintegrate into monomers emitting green fluorescence (λex = 514 nm, λem = 529 nm). The fluorescence ratio of aggregates (λem = 590 nm) and monomers (λem = 529 nm)—590 nm/529 nm—reflects the level of damage to the mitochondrial membrane.
(§6) The cells were seeded in black 96-well fluorometric microplates at a density of 10 × 10^3 cells per well. […] After incubation with the compounds, the medium was removed, the cell monolayer in the wells was washed twice with HBSS (140 mM NaCl, 5 mM KCl, 0.8 mM MgCl2, 1.8 mM CaCl2, 1 mM Na2HPO4, 10 mM HEPES and 1% glucose) and 50 μL of JC-1 solution in HBSS was added to each well (final probe concentration 5 μmol/L). Cells were incubated with the probe for 30 min in the dark in an incubator (37 °C). After incubation, the probe was removed and replaced with fresh HBSS buffer. Fluorescence measurements (Perkin-Elmer LS-5B spectrofluorometer, MA, USA) of JC-1 monomers and aggregates were made at the following excitation and emission wavelengths: λex = 514 nm, λem = 529 nm (monomers), λex = 514 nm, λem = 590 nm (aggregates). The results of the tested samples are presented as the percentage fluorescence ratio of JC-1 aggregates and JC-1 monomers relative to the fluorescence ratio of JC-1 aggregates and JC-1 monomers of the control, which was assumed to be 100%.
(§7) A positive control was formed of cells pre-incubated with 5 µmol/L carbonyl cyanide m-chlorophenylhydrazone (CCCP), a chemical inhibitor of oxidative phosphorylation that acts by uncoupling the protons flowing along the electrochemical gradient from phosphorylation.

The subject of another assay is Ishikawa. The experiment in a line: Mitochondrial potential (ΔΨm), JC-1 method. In kind it is cell-based, human. The settings on record: IC50 concentration, 24 h.
Description: as §5, §6, §7

In assay [5] the test system is MCF-7. The experiment in a line: Mitochondrial potential (ΔΨm), JC-1 method. In kind it is cell-based, human. The note with it: IC50 concentration, 24 h.
Description: as §5, §6, §7

The test system of assay [6] is MDA-MB-231. The experiment in a line: Nitric oxide (RNS) generation, DAF-FM diacetate probe. In kind it is cell-based, human. The settings on record: IC50 concentration, 24 h. As to the method: Diaminofluorescein-FM diacetate (DAF-FM diacetate, Invitrogen, Carlsbad, CA, USA), is a widely employed cell permeant fluorescent reagent for the detection and quantification of reactive nitrogen species (RNS), particularly nitric oxide (NO). […] However, upon reaction with NO, it undergoes a transformation that yields a highly fluorescent benzotriazole derivative (excitation/emission maxima: λex = 495, λem = 515 nm).
The cells were seeded in black 96-well fluorometric microplates at a density of 10 × 10^3 cells per well. […] After incubation with the compounds, the medium was removed, the cell monolayer in the wells was washed twice with HBSS (140 mM NaCl, 5 mM KCl, 0.8 mM MgCl2, 1.8 mM CaCl2, 1 mM Na2HPO4, 10 mM HEPES and 1% glucose) and 50 μL of DAF-FM diacetate solution in HBSS was added to each well (final probe concentration 5 μmol/L). Cells were incubated with the probe for 30 min in the dark in an incubator (37 °C). After incubation, the probe was removed and replaced with fresh HBSS buffer and then incubated for an additional 30 min to allow for complete de-esterification of the intra cellular diacetates. After this time, the fluorescence was measured. The measurement was performed at the following excitation and fluorescence emission wavelengths: λex = 495 nm/λem = 515 nm. Fluorescence was measured on a Perkin-Elmer LS-5B spectrofluorometer (MA, USA). Fluorescence intensity values for control cells were arbitrarily set as 100%. The results are presented as percentages of control cells calculated on the basis of a comparison of the fluorescence intensity ratio of test samples and controls (100%) (fluorescence of samples was calculated as Δf in relation to the control).

Structures are written as SMILES.

Consider `O=C1/C(=C/c2ccccc2)COc2ccccc21` [Compound 1], for which the concentration for half-maximal inhibition (IC50) in the assay with HCC38 came out at 15.7 ± 0.8 µM; with Hec-1-A [1], 18.5 ± 1.2 µM; with MCF-7 [2] it was 10.2 ± 0.9 µM; in the assay with MDA-MB-231 [3], 12.6 ± 1.1 µM. For the same molecule, the “hyperpolarization of ΔΨm compared to control” value with Hec-1-A [4] is reported as “approximately 30%”. Further, the “decrease in ΔΨm” value in the assay with Ishikawa is listed as “approximately 30%”. Besides, the “decrease in ΔΨm (depolarization) compared to the control” value in the assay on MCF-7 [5] is on record as “approximately 17%”. The “increase in nitric oxide level (DAF-FM)” value in the assay on MDA-MB-231 [6] is given as “approximately 20%”.
Turning to `COc1cccc(/C=C2/C(=O)c3ccccc3OC2c2ccccc2)c1` (stereo not drawn) [Compound 3], the concentration for half-maximal inhibition (IC50) came out at 20.9 ± 1.5 µM with HCC38, 26.9 ± 2.3 µM in the assay with Hec-1-A [1], 16.4 ± 2.3 µM in the assay with MCF-7 [2] and 15.2 ± 3.1 µM with MDA-MB-231 [3]. The “changes in ΔΨm (in words)” value in the assay with Hec-1-A [4] was “no changes in ΔΨm were observed”. In the assay on Ishikawa, the “decrease in ΔΨm” value was “about 15%”. Moreover, the “hyperpolarization of ΔΨm” value with MCF-7 [5] was “approximately 30%”. In addition, in the assay with MDA-MB-231 [6], the “increase in nitric oxide level (DAF-FM)” value is reported as “approximately 15%”.
With `O=C1/C(=C/c2ccccc2)C(c2ccccc2)Oc2ccccc21` (stereo not drawn) [Compound 5], the IC50 with HCC38 is 25.6 ± 0.9 µM; with Hec-1-A [1], 35.9 ± 2.4 µM; with MCF-7 [2] it was 25.1 ± 4.2 µM; with MDA-MB-231 [3], 23.3 ± 1.4 µM. In addition, the “changes in ΔΨm (in words)” value with Hec-1-A [4] is recorded as “no changes in ΔΨm were observed”. In addition, the “hyperpolarization of mitochondrial membranes relative to controls” value in the assay with Ishikawa is “approximately 30%”. The “hyperpolarization of ΔΨm” value in the assay with MCF-7 [5] is around 40%. In addition, in the assay on MDA-MB-231 [6], the “increase in nitric oxide level (DAF-FM)” value is “approximately 15%”.
